Data as given in patent US10266526B2, “Substituted 1,2,3-triazoles as SMYD inhibitors for treating cancer” (EPIZYME, INC., priority 2014, dated 2019).

Target: SMYD3 (Homo sapiens (Human), UniProt Q9H7B4)
Test: SMYD3 biochemical assay (SMYD3 enzyme assay on MEKK2 protein substrate, 3H-SAM scintillation proximity assay)
Settings: read-out: SMYD3 Biochem IC50 (μM)*
In short: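 Native full-length human SMYD3, expressed in E. coli, was preincubated with compound for 30 min at room temperature in 25 mM Tris-Cl pH 8.0, 1 mM TCEP, 0.005% BSG and 0.005% Tween 20. ³H-SAM plus GST-MEKK2 then started the reaction. It was stopped with unlabeled SAM (100 uM final), and methylated MEKK2 was read by SPA.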

Chain of SMYD3 (Q9H7B4 whole entry): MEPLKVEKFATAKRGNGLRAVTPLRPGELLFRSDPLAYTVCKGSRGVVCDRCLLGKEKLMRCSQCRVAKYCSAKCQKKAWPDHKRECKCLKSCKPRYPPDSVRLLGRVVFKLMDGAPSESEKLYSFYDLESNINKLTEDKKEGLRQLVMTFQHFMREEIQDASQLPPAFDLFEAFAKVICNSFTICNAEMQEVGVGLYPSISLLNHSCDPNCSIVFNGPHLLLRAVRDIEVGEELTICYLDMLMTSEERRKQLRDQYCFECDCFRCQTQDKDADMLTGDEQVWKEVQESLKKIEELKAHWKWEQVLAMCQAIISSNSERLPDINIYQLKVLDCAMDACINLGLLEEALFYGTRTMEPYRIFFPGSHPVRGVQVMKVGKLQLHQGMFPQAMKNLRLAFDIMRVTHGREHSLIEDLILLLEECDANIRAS

C[C@H](N)C(=O)N1CC[C@@H](CNC(=O)c2ccc3c(c2)CC(=O)N3)C1 [compound 134, N-(((S)-1-(L-alanyl)pyrrolidin-3-yl)methyl)-2-oxoindoline-5-carboxamide] and C[C@H](N)C(=O)N1CC[C@H](CNC(=O)c2ccc3c(c2)CC(=O)N3)C1 [compound 135, N-(((R)-1-(L-alanyl)pyrrolidin-3-yl)methyl)-2-oxoindoline-5-carboxamide] are within 1.5-fold of each other in IC50: 10.2 µM for the first, 13.6 µM for the second.

Going from Cc1nc(-c2ccc(C(=O)N[C@H]3CC[C@H](NC(=O)CCN)CC3)cc2)no1 [compound 136, N-((1r,4r)-4-(3-aminopropanamido)cyclohexyl)-4-(5-methyl-1,2,4-oxadiazol-3-yl)benzamide] to Cc1nc(-c2ccc(C(=O)N[C@H]3CC[C@H](N)CC3)cc2)no1 [compound 137, N-((1r,4r)-4-aminocyclohexyl)-4-(5-methyl-1,2,4-oxadiazol-3-yl)benzamide], the IC50 falls from over 100 µM to 46.6 µM.

CC(NC(=O)c1ccncc1)C1CCN(C(=O)[C@H](C)N)CC1 (stereo partly drawn) [compound 138, N-(1-(1-(L-alanyl)piperidin-4-yl)ethyl)isonicotinamide] and CC(NC(=O)c1cccnc1)C1CCN(C(=O)[C@H](C)N)CC1 (stereo partly drawn) [compound 141, N-(1-(1-(L-alanyl)piperidin-4-yl)ethyl)nicotinamide] cannot be ordered by IC50: over 100 µM for the first, over 100 µM for the second.

NCCC(=O)N[C@H]1CC[C@H](NC(=O)c2ccncc2)CC1 [compound 139, N-((1r,4r)-4-(3-aminopropanamido)cyclohexyl)isonicotinamide] and NCCC(=O)N[C@H]1CC[C@H](NC(=O)c2cccnc2)CC1 [compound 142, N-((1r,4r)-4-(3-aminopropanamido)cyclohexyl)nicotinamide] cannot be ordered by IC50: over 100 µM for the first, over 100 µM for the second.

N[C@H]1CC[C@H](NC(=O)c2ccncc2)CC1 [compound 140, N-((1r,4r)-4-aminocyclohexyl)isonicotinamide] and N[C@H]1CC[C@H](NC(=O)c2cccnc2)CC1 [compound 143, N-((1r,4r)-4-aminocyclohexyl)nicotinamide] cannot be ordered by IC50: over 100 µM for the first, over 100 µM for the second.

CC(NC(=O)c1ncccn1)C1CCN(C(=O)[C@H](C)N)CC1 (stereo partly drawn) [compound 144, N-(1-(1-(L-alanyl)piperidin-4-yl)ethyl)pyrimidine-2-carboxamide] and CC(NC(=O)c1cccc(S(C)(=O)=O)c1)C1CCN(C(=O)[C@H](C)N)CC1 (stereo partly drawn) [compound 149, N-(1-(1-(L-alanyl)piperidin-4-yl)ethyl)-3-(methylsulfonyl)benzamide] cannot be ordered by IC50: over 100 µM for the first, over 100 µM for the second.

NCCC(=O)N[C@H]1CC[C@H](NC(=O)c2ncccn2)CC1 [compound 145, N-((1r,4r)-4-(3-aminopropanamido)cyclohexyl)pyrimidine-2-carboxamide] and NCCC(=O)N[C@H]1CC[C@H](NC(=O)c2nccnc2N)CC1 [compound 152, 3-amino-N-((1r,4r)-4-(3-aminopropanamido)cyclohexyl)pyrazine-2-carboxamide] cannot be ordered by IC50: over 100 µM for the first, over 100 µM for the second.

CC(NC(=O)c1ccc2c(c1)OCO2)C1CCN(C(=O)[C@H](C)N)CC1 (stereo partly drawn) [compound 146, N-(1-(1-(L-alanyl)piperidin-4-yl)ethyl)benzo[d][1,3]dioxole-5-carboxamide] and N[C@H]1CC[C@H](NC(=O)c2ccc3c(c2)OCO3)CC1 [compound 148, N-((1r,4r)-4-aminocyclohexyl)benzo[d][1,3]dioxole-5-carboxamide] cannot be ordered by IC50: over 100 µM for the first, over 100 µM for the second.

Going from NCCC(=O)N[C@H]1CC[C@H](NC(=O)c2ccc3c(c2)OCO3)CC1 [compound 147, N-((1r,4r)-4-(3-aminopropanamido)cyclohexyl)benzo[d][1,3]dioxole-5-carboxamide] to CS(=O)(=O)c1cccc(C(=O)N[C@H]2CC[C@H](NC(=O)CCN)CC2)c1 [compound 150, N-((1r,4r)-4-(3-aminopropanamido)cyclohexyl)-3-(methylsulfonyl)benzamide], the IC50 rises from 98.2 µM to over 100 µM.

Work on CS(=O)(=O)c1cccc(C(=O)N[C@H]2CC[C@H](N)CC2)c1 [compound 151, N-((1r,4r)-4-aminocyclohexyl)-3-(methylsulfonyl)benzamide] yielded an IC50 of over 100 µM.
